Laboratory results published in patent US5807899A, “Triphenylethylenes, process for their production, pharmaceutical preparations that contain these triphenylethylenes as well as their use for the production of pharmaceutical agents” (Schering Aktiengesellschaft, priority 1995, dated 1998).
pIC50: −log10 of the molar value.

Assays:
HeLa cell line = experiment: Transactivation assay for antiestrogenic action, HeLa cell line; type: cell-based; conditions: Homo sapiens, antiestrogenic action in transactivation assay
Protocol: The compounds of general formula I according to this application are distinguished by a new type of side chain on the phenoxy radical in comparison to the already known tamoxifen derivatives. […] As mentioned an estrogenic partial action can also be present in the-compounds according to the invention. The antiestrogenic and optionally estrogenic action of the compounds according to the invention was determined in a transactivation assay [Demirpence, E.; Duchesne, M.-J.; Badia, E.; Gagne, D.; and Pons, M.: MVLN Cells: A Bioluminescent MCF-7-Derived Cell Line to Study the Modulation of Estrogenic Activity; J. Steroid Molec. Biol.. Vol. 46, No. 3, 355-364 (1993) as well as Savouret, J. F.; Bailly, A.; Misrahi, M.; Rauch, C.; Redeuilh, G.; Chauchereau, A. and Milgrom, E.: Characterization of the Hormone Responsive Element Involved in the Regulation of the Progesterone Receptor Gene, The EMBO Journal Vol. 10, No. 7, 1875-1883 (1991)].
The IC50 values for the new compounds lie in the nanomolar range. In the HeLa cell line, the following IC50 values are produced for the compounds of Examples 5, 12, 13 and 16 (test implementation according to the bibliographic references indicated above): […]

[1] = tested on: estrogens (antiestrogenic / estrogenic activity); conditions: reference compound; cited from earlier work

Row | SMILES | pIC50 (HeLa cell line) | antiestrogenic / estrogenic profile of tamoxifen [1]
1 | CCC(=C(c1ccc(I)cc1)c1ccc(OCCCCC[S+]([O-])CCCC(F)(F)C(F)(F)F)cc1)c1ccccc1 (centres unmarked) [Example 15, (5-{4-[(E,Z)-1-(4-Iodophenyl)-2-phenyl-but-1-enyl]-phenoxy}-pentyl)-(4,4,5,5,5-pentafluoropentyl)-sulfoxide] | 7.77 | 
2 | CC/C(=C(\c1ccccc1)c1ccc(OCCN(C)C)cc1)c1ccccc1 [tamoxifen] |  | antiestrogens with estrogenic partial action

The next lines start with results.

Row | pIC50 (HeLa cell line) | SMILES | antiestrogenic / estrogenic profile of tamoxifen [1]
3 | 8.55 | CCC(=C(c1ccc(O)cc1)c1ccc(OCCCCC[S+]([O-])Cc2ccccn2)cc1)c1ccccc1 (centres unmarked) [Example 12, 4-((E,Z)-2-Phenyl-1-{4-[5-(pyridin-2-ylmethanesulfinyl)-pentyloxy]-phenyl}-but-1-enyl)-phenol] | 
4 | 9.00 | CCC(=C(c1ccc(O)cc1)c1ccc(OCCCCC[S+]([O-])CCCC(F)(F)C(F)(F)F)cc1)c1ccccc1 (centres unmarked) [Example 5, 4-(1-{4-[5-(4,4,5,5,5-Pentafluoropentanesulfinyl)-pentyloxy]-phenyl}-2-phenyl-but-1-enyl)-phenol] | 
5 | 8.30 | CCC(=C(c1ccc(O)cc1)c1ccc(OCCCCCSCc2ccccn2)cc1)c1ccccc1 [Example 11, 4-((E,Z)-2-Phenyl-1-{4-[5-(pyridin-2-ylmethylsulfidyl)-pentyloxy]-phenyl}-but-1-enyl)-phenol] | 
